Laboratory results as given in PMC9126943, “ADAMTS4-specific MR probe to assess aortic aneurysms in vivo using synthetic peptide libraries” (Nature Communications, 2022).
Entries after “also recorded” stand apart in the source; their conditions may differ. Where a SMILES comes first, the peptide text is derived from it. Bridges are numbered along the chain shown (N, C = ends). The star is where a group is joined. Cy5(nonsulfonated) = CN1C(=CC=CC=CC2=[N+](CCCCCC(=O)*)c3ccccc3C2(C)C)C(C)(C)c2ccccc21

Biological target: T1, ADAMTS5 (Homo sapiens, UniProt Q9UNA0)
T1 construct: His; purchased BioTeZ Berlin-Buch GmbH 30 400 502
T1 sequence (Q9UNA0 262-930): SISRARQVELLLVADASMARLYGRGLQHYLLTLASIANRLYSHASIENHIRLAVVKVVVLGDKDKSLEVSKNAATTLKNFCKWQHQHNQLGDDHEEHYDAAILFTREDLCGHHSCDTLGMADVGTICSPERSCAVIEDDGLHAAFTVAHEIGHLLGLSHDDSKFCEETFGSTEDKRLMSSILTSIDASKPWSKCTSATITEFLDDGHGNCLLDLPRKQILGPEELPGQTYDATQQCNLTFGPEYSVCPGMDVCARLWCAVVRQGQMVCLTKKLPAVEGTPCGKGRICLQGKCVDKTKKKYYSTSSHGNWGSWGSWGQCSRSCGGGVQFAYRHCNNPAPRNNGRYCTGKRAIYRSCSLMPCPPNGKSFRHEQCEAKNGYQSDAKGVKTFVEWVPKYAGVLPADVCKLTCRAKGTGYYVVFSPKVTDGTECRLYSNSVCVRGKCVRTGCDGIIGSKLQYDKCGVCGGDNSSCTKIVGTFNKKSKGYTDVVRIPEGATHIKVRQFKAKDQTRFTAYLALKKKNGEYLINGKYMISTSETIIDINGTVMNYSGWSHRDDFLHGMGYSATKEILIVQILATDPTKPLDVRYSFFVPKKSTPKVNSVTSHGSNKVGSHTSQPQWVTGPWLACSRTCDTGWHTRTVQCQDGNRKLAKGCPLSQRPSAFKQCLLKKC
Assay: MST instrument, ligand-dependent fluorescence change, Cy5-labeled peptide vs ADAMTS5
Type: binding
Conditions: Cy5-labeled peptide 3 nM, ADAMTS5 starting concentration 2.46 µM, n = 3
Method: Microscale thermophoresis (MST) was performed on a Monolith Pico (NanoTemper, Munich, Germany). The Cy5-labeled peptides were diluted into the MST buffer (150 mM NaCl, 50 mM TRIS-HCl, 5 mM CaCl2, and Tween-20) to reach a dilution of 6 nM. ADAMTS4, ADAMTS5, and ADAMTS1 were directly used with the supplied concentration. For ADAMTS4, the starting concentration was 4.96 µM, while for ADAMTS1 it was 4.88 µM and for ADAMTS5 it was 2.46 µM. Since we saw a loss of binding after centrifugation, the use of protein concentrators were inappropriate. 20 µl of the protein solutions were transferred into a PCR tube. 10 µl of this first vial was transferred into a second vial and mixed by pipetting with 10 µl of the MST buffer. […] The capillaries were transferred into the Monolith tray and measured with 10% excitation power on the pico-red excitation on high MST power at 25 °C. […] We detected a ligand-dependent fluorescence change for some of the systems. We checked for ADAMTS4 and the ADAMTS4-specific-Cy5-labeled probe via a saturation test for specifying the ligand-dependent fluorescence change. […] The samples were heated at 95 °C for 5 min and measured in the MST. The fluorescence difference between the concentrations was afterward at the same level. Each measurement was repeated three times independently and the binding constant was calculated by merging all three measurements. […]

Q: For C[N+]1=C(C=CC=CC=C2N(CCCCCC(=O)NCCCC[C@H](NC(=O)CNC(=O)CNC(=O)[C@H](CO)NC(=O)CNC(=O)CNC(=O)[C@H](CO)NC(=O)[C@@H]3CSSC[C@H](N)C(=O)N[C@@H](CO)C(=O)N[C@@H](CCCNC(=N)N)C(=O)N[C@@H](CCCNC(=N)N)C(=O)NCC(=O)N3)C(=O)NCC(N)=O)c3ccccc3C2(C)C)C(C)(C)c2ccccc21 [Cy5-labeled probe] (H-CSRRGCSGGSGGK(Cy5(nonsulfonated))G-NH2; disulfide 1-6; N-terminus and C-terminus assumed), which “binding to ADAMTS5, in words” value is on record?
A: determination of the binding constant is not possible; also recorded: plateau was not reached; also recorded: a ligand dependent fluorescence change occurs
